Experimental findings from ChEMBL document CHEMBL5325395, “Design, synthesis and anti-ovarian cancer activities of thieno[2,3-d]pyrimidine based chimeric BRD4 inhibitor/nitric oxide-donator” (Eur J Med Chem, 2023) are described below.

One assay deals with ES-2. As to the kind of experiment: Antiproliferative activity against human ES2 cells assessed as reduction in cell viability incubated for 24 hrs by CCK8 assay. To be noted: ES-2, 24 h. It counts as functional, cell-based. On the technique in general: Formazan colour is commonly taken as a measure of viable cells.
The test system of a further assay is A2780. As to the kind of experiment: Antiproliferative activity against human A2780 cells assessed as reduction in cell viability incubated for 24 hrs by CCK8 assay. In kind it is functional, cell-based. To be noted: A2780, 24 h.
The nature of assay [1]: Induction of NO release in phosphate buffer at 2 hrs by Griess reagent based spectrophotometer analysis. In kind it is functional. Background: The Griess reaction detects nitrite, a stable product of nitric oxide.
The subject of assay [2] is SK-OV-3. As to the kind of experiment: Antiproliferative activity against human SK-OV-3 cells assessed as reduction in cell viability incubated for 24 hrs by CCK8 assay. In kind it is functional, cell-based. To be noted: SK-OV-3, 24 h.
The nature of assay [3]: Induction of NO release in phosphate buffer at 1 hr by Griess reagent based spectrophotometer analysis. It counts as functional.
The nature of assay [4]: Induction of NO release in phosphate buffer at 3 hrs by Griess reagent based spectrophotometer analysis. In kind it is functional.
The test system of a further assay is OVCAR-3. As to the kind of experiment: Antiproliferative activity against human OVCAR-3 cells assessed as reduction in cell viability incubated for 24 hrs by CCK8 assay. It counts as functional, cell-based. To be noted: OVCAR-3, 24 h.
Assay [5] in a line: Induction of NO release in phosphate buffer at 0.5 hrs by Griess reagent based spectrophotometer analysis. It counts as functional.
A short description of assay [6]: Induction of NO release in phosphate buffer at 24 hrs by Griess reagent based spectrophotometer analysis. In kind it is functional.
Assay [7] concerns the target Bromodomain-containing protein 4 (Homo sapiens, UniProt O60885). As to the kind of experiment: Inhibition of BRD4 (unknown origin).
A short description of assay [8]: Induction of NO release in phosphate buffer at 4 hrs by Griess reagent based spectrophotometer analysis. In kind it is functional.
A short description of assay [9]: Induction of NO release in phosphate buffer at 6 hrs by Griess reagent based spectrophotometer analysis. In kind it is functional.
In a further assay the test system is SW626. As to the kind of experiment: Antiproliferative activity against human SW626 cells assessed as reduction in cell viability incubated for 24 hrs by CCK8 assay. In kind it is functional, cell-based. The following applies: SW626, 24 h.
The next assay relates to Mus musculus. As to the kind of experiment: In vivo inhibition of BRD4 in BALB/c nude mouse xenografted with human SK-OV-3 cells assessed as reduction in c-Myc expression at 30 mg/kg, ip administered for 19 days by immunohistochemical analysis. It counts as functional, organism-based. To be noted: time 19.0 day.
Assay [10] has as its system SK-OV-3. As to the kind of experiment: Induction of autophagy in human SK-OV-3 cells assessed as reduction in cell viability at 100 nmol/L incubated for 24 hrs by CCK8 assay. In kind it is functional, cell-based.
For assay [11], the system named is SK-OV-3. As to the kind of experiment: Induction of autophagy in human SK-OV-3 cells assessed as reduction in cell viability at 1 mmol/L incubated for 24 hrs by CCK8 assay. It counts as functional, cell-based.

As a reminder, the IC50 is the concentration that gives 50% inhibition.

Structures are written as SMILES. Active and inactive are the calls of the source. The rule behind the calls is not given here. Bounds are passed on as bounds.

Turning to `Cc1cc(-c2nc3sc4c(c3c(=O)[nH]2)CCN(C)C4)cc(C)c1OCCCCCCO[N+](=O)[O-]`, the half-maximal inhibitory concentration (IC50) in the assay on ES-2 was determined as 15.8 µM; in the assay on A2780, 14.2 µM; in the assay on SK-OV-3 [2] it was 3.87 µM; in the assay on OVCAR-3, 17.9 µM; in [7], 2.25 µM; in the assay on SW626, 17 µM. In addition, the Activity in [1] was 0.03 µmol/L; in [3], 0.038 µmol/L; in assay [4], 0.03 µmol/L; in [5] it was 0.029 µmol/L; in assay [6] it was 0.166 µmol/L; in assay [8], 0.036 µmol/L. The compound further returned an Activity in assay [9] of 0.037 µmol/L.

For `Cc1cc(-c2nc3sc4c(c3c(=O)[nH]2)CCN(C)C4)cc(C)c1OCCCCCC(=O)OCc1no[n+]([O-])c1C`, the concentration for half-maximal inhibition (IC50) in the assay on ES-2 was 4.63 µM; in the assay with A2780 it was 6.97 µM; in the assay with SK-OV-3 [2] it was 12 µM; in the assay with OVCAR-3, 6.89 µM; in [7], 1.97 µM; in the assay on SW626, 5.79 µM. Besides, the Activity is 0.033 µmol/L in assay [1]; 0.03 µmol/L in assay [3]; 0.036 µmol/L in [4]; 0.02 µmol/L in [5]; 0.154 µmol/L in assay [6]; 0.04 µmol/L in assay [8]. In addition, in [9], the Activity amounted to 0.044 µmol/L.

Regarding `Cc1cc(-c2nc3sc4c(c3c(=O)[nH]2)CCN(C)C4)cc(C)c1OCCCC(=O)OCc1no[n+]([O-])c1C`, the IC50 with ES-2 was 14.4 µM; in the assay with A2780, 17.3 µM; in the assay on SK-OV-3 [2], 7.93 µM; in the assay with OVCAR-3, 5.44 µM; in assay [7], 2.26 µM; in the assay on SW626, 13.4 µM. Also, the Activity in [1] is 0.03 µmol/L; in assay [3], 0.029 µmol/L; in assay [4], 0.027 µmol/L; in assay [5] it was 0.023 µmol/L; in [6], 0.149 µmol/L; in assay [8] it was 0.035 µmol/L. Moreover, the Activity in assay [9] stood at 0.036 µmol/L.

For the compound `Cc1cc(-c2nc3sc4c(c3c(=O)[nH]2)CCN(C)C4)cc(C)c1O`, the inhibition result in the assay on Mus musculus is “Active”.

In the case of `Cc1cc(-c2nc3sc4c(c3c(=O)[nH]2)CCN(C)C4)cc(C)c1OCCCCCCOC(=O)c1no[n+]([O-])c1C`, the half-inhibitory concentration (IC50) with ES-2 was 4.69 µM; in the assay on A2780 it was 13.1 µM; in the assay on SK-OV-3 [2], 6.33 µM; in the assay on OVCAR-3, 7.04 µM; in [7], 2.36 µM; in the assay on SW626, 12.1 µM. In addition, the Activity stood at 0.028 µmol/L in [1]; 0.027 µmol/L in [3]; 0.026 µmol/L in assay [4]; 0.022 µmol/L in assay [5]; 0.154 µmol/L in [6]; 0.036 µmol/L in assay [8]. This compound returned an Activity in assay [9] of 0.044 µmol/L.

`COc1cc(OC)c2c(=O)[nH]c(-c3cc(C)c(OCCO)c(C)c3)nc2c1` [APABETALONE]: the IC50 with ES-2 amounted to 8.01 µM; in the assay with A2780, 123 µM; in the assay on SK-OV-3 [2] it was 7.05 µM; in the assay with OVCAR-3, 16.9 µM; in the assay with SW626, 8.45 µM.

As for `CO/C1=C\C(C)=C\[C@@H](C)[C@@H](O)[C@@H](C)C/C(C)=C/C=C/[C@H](OC)[C@@H]([C@@H](C)[C@@H](O)[C@H](C)[C@@]2(O)C[C@@H](O)[C@H](C)[C@@H](C(C)C)O2)OC1=O`, the outcome in the assay on SK-OV-3 [10] was inactive.

As to `Cc1cc(-c2nc3sc4c(c3c(=O)[nH]2)CCN(C)C4)cc(C)c1OCCCCO[N+](=O)[O-]`, the IC50 amounted to 16.3 µM in the assay on ES-2; 16.9 µM in the assay on A2780; 16.9 µM in the assay with SK-OV-3 [2]; 15.3 µM in the assay on OVCAR-3; 1.89 µM in assay [7]; 16.6 µM with SW626. Also, the Activity in [1] worked out at 0.037 µmol/L; in assay [3], 0.05 µmol/L; in assay [4], 0.05 µmol/L; in assay [5], 0.03 µmol/L; in [6], 0.173 µmol/L; in assay [8] it was 0.052 µmol/L. This compound displayed an Activity in [9] of 0.065 µmol/L.

In the case of `Cc1cc(-c2nc3sc4c(c3c(=O)[nH]2)CCN(C)C4)cc(C)c1OCC(=O)OCc1no[n+]([O-])c1C`, the IC50 with ES-2 was determined as 8.86 µM; in the assay with A2780, 5.39 µM; in the assay with SK-OV-3 [2], 1.62 µM; in the assay on OVCAR-3, 3.73 µM; in assay [7], 1.21 µM; in the assay with SW626, 9.85 µM. For the same compound, the Activity was 0.025 µmol/L in assay [1]; 0.04 µmol/L in assay [3]; 0.033 µmol/L in assay [4]; 0.028 µmol/L in assay [5]; 0.169 µmol/L in assay [6]; 0.037 µmol/L in assay [8]. In [9], the Activity worked out at 0.042 µmol/L.

As for `Cc1cc(-c2nc3sc4c(c3c(=O)[nH]2)CCN(C)C4)cc(C)c1OCCCC(=O)OCc1c(-c2ccccc2)no[n+]1[O-]`, the IC50 with ES-2 came to 19 µM; in the assay with A2780 it was 7.31 µM; with SK-OV-3 [2] it was 3.18 µM; with OVCAR-3 it was 13.8 µM; in assay [7] it was 1.71 µM; in the assay with SW626, 7.65 µM. The Activity in assay [1] was 0.068 µmol/L; in [3], 0.068 µmol/L; in assay [4] it was 0.056 µmol/L; in [5], 0.063 µmol/L; in assay [6], 0.249 µmol/L; in assay [8], 0.066 µmol/L. The compound also gave an Activity in assay [9] of 0.117 µmol/L.

In the case of `CCOC(=O)N1CCN(/[N+]([O-])=N/Oc2ccc([N+](=O)[O-])cc2[N+](=O)[O-])CC1`, the IC50 in the assay with ES-2 is more than 20 µM; in the assay with A2780, more than 20 µM; in the assay on SK-OV-3 [2], 18.5 µM; with OVCAR-3 it was more than 20 µM; with SW626, more than 20 µM.

On to `Cn1cnc(N)c2ncnc1-2`, for which, in the assay with SK-OV-3 [11], the outcome was Active.

With `Cc1cc(-c2nc3sc4c(c3c(=O)[nH]2)CCN(C)C4)cc(C)c1OCCCCCC(=O)OCc1c(-c2ccccc2)no[n+]1[O-]`, the IC50 with ES-2 amounted to 12.8 µM; with A2780 it was 9.73 µM; in the assay with SK-OV-3 [2] it was 1.69 µM; in the assay with OVCAR-3, 5.42 µM; in assay [7], 1.34 µM; in the assay on SW626, 12.5 µM. Besides, the Activity in assay [1] turned out to be 0.068 µmol/L; in assay [3], 0.068 µmol/L; in assay [4], 0.056 µmol/L; in assay [5], 0.063 µmol/L; in [6] it was 0.249 µmol/L; in assay [8], 0.066 µmol/L. For the same compound, the Activity in assay [9] was 0.117 µmol/L.
